For orientation: IC50 means the midpoint of a concentration-inhibition curve.

For one experiment, the target named is T1, GBA2 (Homo sapiens, UniProt Q9HCG7).
T1 sequence (Q9HCG7 1-927): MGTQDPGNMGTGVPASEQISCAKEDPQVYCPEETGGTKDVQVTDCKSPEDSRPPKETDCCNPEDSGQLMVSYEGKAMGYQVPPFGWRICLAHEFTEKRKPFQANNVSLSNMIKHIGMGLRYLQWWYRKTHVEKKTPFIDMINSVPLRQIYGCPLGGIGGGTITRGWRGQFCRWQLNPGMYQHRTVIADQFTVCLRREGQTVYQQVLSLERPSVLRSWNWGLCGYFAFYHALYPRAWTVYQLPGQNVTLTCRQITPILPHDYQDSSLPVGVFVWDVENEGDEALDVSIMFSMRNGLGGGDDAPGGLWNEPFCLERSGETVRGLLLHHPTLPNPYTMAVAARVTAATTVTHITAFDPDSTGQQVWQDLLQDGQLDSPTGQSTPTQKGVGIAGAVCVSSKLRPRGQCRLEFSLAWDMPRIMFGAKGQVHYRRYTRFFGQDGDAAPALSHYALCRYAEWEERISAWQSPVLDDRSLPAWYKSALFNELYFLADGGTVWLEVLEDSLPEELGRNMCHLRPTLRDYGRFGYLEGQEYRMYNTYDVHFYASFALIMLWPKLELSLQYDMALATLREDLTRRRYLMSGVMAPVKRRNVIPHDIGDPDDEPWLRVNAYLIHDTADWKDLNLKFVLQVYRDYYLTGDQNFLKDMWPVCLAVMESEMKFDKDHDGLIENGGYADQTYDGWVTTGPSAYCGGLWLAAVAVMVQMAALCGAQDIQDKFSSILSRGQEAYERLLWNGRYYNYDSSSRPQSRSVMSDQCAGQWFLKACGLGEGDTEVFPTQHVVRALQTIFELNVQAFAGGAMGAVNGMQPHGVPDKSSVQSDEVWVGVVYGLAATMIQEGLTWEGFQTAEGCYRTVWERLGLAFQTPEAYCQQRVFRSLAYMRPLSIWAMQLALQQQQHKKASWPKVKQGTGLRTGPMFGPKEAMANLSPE
The experiment is described as follows: Determination of IC50 values for inhibition of GBA2 in cell lysate. More on the design: host or cells: HEK293T (lentiviral transduction, puromycin selection); used as cellular homogenate.
Conditions: not given
In kind it is biochemical. From the text: Assay for Determination of IC50 Values for Inhibition of GBA2 in Cell Lysate
Stable GBA2-expressing HEK293T cells were generated as follows. The PCR-amplified human GBA2 (GBA2 nucleotide accession number BC011363) using the following primers: Sense 5′---CGCAAATGGGCGGTAGGCGTG (SEQ ID NO:2)---3′ and antisense 5′---TAGTCAGCCATGGGGCGGAGA (SEQ ID NO:3)---3′) was cloned into pLenti-GIII-CMV by ABM Inc. The correctness of the construct was verified by sequencing. Lentivirus particles containing GBA2 in the pLenti-GIII-CMV plasmid were prepared using a third Generation Virus Packaging Mix (ABM cat #LV053-G074) in HEK293T cells and supplied as a virus particle suspension. The virus suspension was used for infection of HEK293T cells. Cell populations stably expressing human GBA2 were selected using puromycin for several weeks as determined by activity assays and western blot.
Various concentrations of test compounds were prepared in DMSO and then diluted into buffer consisting of 100 mM citric acid, 200 mM disodium phosphate with 1% v/v C10E6, pH 5.5. Cellular homogenates (0.25 mg/mL) of the stable HEK293T-overexpressing GBA2 cell line were preincubated for 10 min on ice with an inhibitor of GCase (20 μM (6R,7R,8S)-8-ethyl-4-azaspiro[2.5]octane-6,7-diol). The reaction solution consisted of 20 μL of 750 μM 4-methylumbelliferone-β-D glucopyranoside in 5% DMSO in the same buffer, 20 μL of GBA2-cellular homogenate pre-treated with (6R,7R,8S)-8-ethyl-4-azaspiro[2.5]octane-6,7-diol and 20 μL of various concentrations of test compound in 10% DMSO in the same buffer. The final concentrations in the reaction were 0.083 mg/mL GBA2-cellular homogenate, 250 μM 4-methylumbelliferone-β-D glucopyranoside, and various concentrations of inhibitor. The inhibitor and GBA2-cellular homogenate were preincubated together for 5 min at 37° C. The reaction was initiated by addition of substrate and allowed to proceed for 20 min at 37° C. to assess GBA2 activity. Reactions were stopped by the addition of an equal volume (60 μL) of 0.5 M NaOH, 0.3 M glycine, pH 10.5. Fluorescence was measured on a Biotek Synergy H4 plate reader at wavelengths of 365 nm for excitation and 450 nm for emission. Incubations without added enzyme or added inhibitors were used to define no enzyme activity and maximal enzyme activity, respectively. IC50 values were determined by fitting the data to a log[inhibitor concentration] versus response curve using GraphPad Prism. IC50 values were calculated as the concentration of inhibitor required to inhibit GBA2 activity by 50%.
Take `C[C@@H]1[C@@H](O)[C@H](O)[C@@H](O)CN1CCc1cccs1` [Example 74, (2R,3R,4R,5S)-2-methyl-1-(2-(thiophen-2-yl)ethyl)piperidine-3,4,5-triol]: the IC50 is 100 to 1000 nM. Regarding `C[C@@H]1[C@@H](O)[C@H](O)[C@@H](O)CN1CCc1ccsc1` [Example 75, (2R,3R,4R,5S)-2-methyl-1-(2-(thiophen-3-yl)ethyl)piperidine-3,4,5-triol], the IC50 was 100 to 1000 nM.

Staying with this experiment, now noted: cellular homogenate of HEK293T cells overexpressing human GBA2, 250 μM 4-methylumbelliferone-β-D glucopyranoside, pH 5.5, 37° C., GCase inhibitor present; read-out: GBA2 IC50.
With `C[C@@H]1[C@@H](O)[C@H](O)[C@@H](O)CN1CCc1ccccn1` [Example 76, (2R,3R,4R,5S)-2-methyl-1-(2-(pyridin-2-yl)ethyl)piperidine-3,4,5-triol], the IC50 is 1000 to 25000 nM.

With `C[C@@H]1[C@@H](O)[C@H](O)[C@@H](O)CN1CCCc1ccccc1` [Example 77, (2R,3R,4R,5S)-2-methyl-1-(3-phenylpropyl)piperidine-3,4,5-triol], the IC50 was below 100 nM. The same measure, in the same setting: under `C[C@@H]1[C@@H](O)[C@H](O)[C@@H](O)CN1CCCc1ccccc1F` [Example 78, (2R,3R,4R,5S)-1-(3-(2-fluorophenyl)propyl)-2-methylpiperidine-3,4,5-triol] stands below 100 nM; under `C[C@@H]1[C@@H](O)[C@H](O)[C@@H](O)CN1CCCc1ccc(F)cc1` [Example 79, (2R,3R,4R,5S)-1-(3-(4-fluorophenyl)propyl)-2-methylpiperidine-3,4,5-triol], below 100 nM; under `C[C@@H]1[C@@H](O)[C@H](O)[C@@H](O)CN1CCCc1cccs1` [Example 80, (2R,3R,4R,5S)-2-methyl-1-(3-(thiophen-2-yl)propyl)piperidine-3,4,5-triol], below 100 nM. With `C[C@@H]1[C@@H](O)[C@H](O)[C@@H](O)CN1CCCc1ccsc1` [Example 81, (2R,3R,4R,5S)-2-methyl-1-(3-(thiophen-3-yl)propyl)piperidine-3,4,5-triol], the IC50 was below 100 nM.

For the compound `C[C@@H]1[C@@H](O)[C@H](O)[C@@H](O)CN1CC1CCN(c2ccccc2)CC1` [Example 82, (2R,3R,4R,5S)-2-methyl-1-((1-phenylpiperidin-4-yl)methyl)piperidine-3,4,5-triol], the 50% inhibitory concentration (IC50) lay in the range of 100 to 1000 nM. Same read-out and setting: the result for `C[C@@H]1[C@@H](O)[C@H](O)[C@@H](O)CN1CC1CCN(c2ccccc2F)CC1` [Example 83, (2R,3R,4R,5S)-1-((1-(2-fluorophenyl)piperidin-4-yl)methyl)-2-methylpiperidine-3,4,5-triol] reads below 100 nM; that for `C[C@@H]1[C@@H](O)[C@H](O)[C@@H](O)CN1CC1CCN(c2cccc(F)c2)CC1` [Example 84, (2R,3R,4R,5S)-1-((1-(3-fluorophenyl)piperidin-4-yl)methyl)-2-methylpiperidine-3,4,5-triol], below 100 nM; that for `C[C@@H]1[C@@H](O)[C@H](O)[C@@H](O)CN1CC1CCN(c2ccc(C(F)(F)F)cc2)CC1` [Example 86, (2R,3R,4R,5S)-2-methyl-1-((1-(4-(trifluoromethyl)phenyl)piperidin-4-yl)methyl)piperidine-3,4,5-triol], below 100 nM.

Consider `C[C@@H]1[C@@H](O)[C@H](O)[C@@H](O)CN1CC1(C)CCN(c2ccccc2)CC1` [Example 87, (2R,3R,4R,5S)-2-methyl-1-((4-methyl-1-phenylpiperidin-4-yl)methyl)piperidine-3,4,5-triol], for which the IC50 lay within 1000 to 25000 nM. Regarding `C[C@@H]1[C@@H](O)[C@H](O)[C@@H](O)CN1CC1(F)CCN(c2ccccc2)CC1` [Example 88, (2R,3R,4R,5S)-1-((4-fluoro-1-phenylpiperidin-4-yl)methyl)-2-methylpiperidine-3,4,5-triol], the IC50 lay within 100 to 1000 nM. Same read-out and setting: the result for `C[C@@H]1[C@@H](O)[C@H](O)[C@@H](O)CN1CCC1CCN(c2ccccc2)CC1` [Example 89, (2R,3R,4R,5S)-2-methyl-1-(2-(1-phenylpiperidin-4-yl)ethyl)piperidine-3,4,5-triol] reads below 100 nM; that for `C[C@@H]1[C@@H](O)[C@H](O)[C@@H](O)CN1CC1CCN(c2cccnc2)CC1` [Example 90, (2R,3R,4R,5S)-2-methyl-1-((1-(pyridin-3-yl)piperidin-4-yl)methyl)piperidine-3,4,5-triol], 1000 to 25000 nM; that for `C[C@@H]1[C@@H](O)[C@H](O)[C@@H](O)CN1CC1CCN(CC(F)(F)F)CC1` [Example 91, (2R,3R,4R,5S)-2-methyl-1-((1-(2,2,2-trifluoroethyl)piperidin-4-yl)methyl)piperidine-3,4,5-triol], 100 to 1000 nM. In the case of `CC(C)C(=O)N1CCC(CN2C[C@H](O)[C@@H](O)[C@H](O)[C@H]2C)CC1` [Example 92, 2-methyl-1-(4-(((2R,3R,4R,5S)-3,4,5-trihydroxy-2-methylpiperidin-1-yl)methyl)piperidin-1-yl)propan-1-one], the IC50 is 1000 to 25000 nM. On the same count and under the same terms, under `C[C@@H]1[C@@H](O)[C@H](O)[C@@H](O)CN1CC1CCN(C(=O)C(C)(C)C)CC1` [Example 93, 2,2-dimethyl-1-(4-(((2R,3R,4R,5S)-3,4,5-trihydroxy-2-methylpiperidin-1-yl)methyl)piperidin-1-yl)propan-1-one] stands 100 to 1000 nM; under `CCCC(=O)N1CCC(CN2C[C@H](O)[C@@H](O)[C@H](O)[C@H]2C)CC1` [Example 94, 1-(4-(((2R,3R,4R,5S)-3,4,5-trihydroxy-2-methylpiperidin-1-yl)methyl)piperidin-1-yl)butan-1-one], 1000 to 25000 nM; under `CC(C)CC(=O)N1CCC(CN2C[C@H](O)[C@@H](O)[C@H](O)[C@H]2C)CC1` [Example 95, 3-methyl-1-(4-(((2R,3R,4R,5S)-3,4,5-trihydroxy-2-methylpiperidin-1-yl)methyl)piperidin-1-yl)butan-1-one], 100 to 1000 nM. Same read-out and setting: the result for `C[C@@H]1[C@@H](O)[C@H](O)[C@@H](O)CN1CC1CCN(C(=O)CC(C)(C)C)CC1` [Example 96, 3,3-dimethyl-1-(4-(((2R,3R,4R,5S)-3,4,5-trihydroxy-2-methylpiperidin-1-yl)methyl)piperidin-1-yl)butan-1-one] reads 100 to 1000 nM; that for `C[C@@H]1[C@@H](O)[C@H](O)[C@@H](O)CN1CC1CCN(C(=O)CC2CCCC2)CC1` [Example 97, 2-cyclopentyl-1-(4-(((2R,3R,4R,5S)-3,4,5-trihydroxy-2-methylpiperidin-1-yl)methyl)piperidin-1-yl)ethanone], 100 to 1000 nM; that for `C[C@@H]1[C@@H](O)[C@H](O)[C@@H](O)CN1CC1CCN(C(=O)C2CC2)CC1` [Example 98, cyclopropyl(4-(((2R,3R,4R,5S)-3,4,5-trihydroxy-2-methylpiperidin-1-yl)methyl)piperidin-1-yl)methanone], 1000 to 25000 nM.
